The test relates to human umbilical vein endothelial cells (HUVEC). The experiment in a line: Migration of endothelial cells, Boyden chamber method. Format: cell-based. Particulars: positive control, 10 ng/mL VEGF, cultured 2 hours. The procedure:
0.1% gelatin was applied on a polycarbonate membrane (Costar, USA) for 10 minutes and dried at room temperature for 1 hour. 30 μL of human umbilical vein endothelial cells (HUVEC, 1×10^6 cells/mL) was put in a lower chamber of a trans-wells (Costar, USA), covered with the dried polycarbonate membrane, and an upper chamber was overlaid, followed by fixing by a screw. The chamber was turned over so that the cells could be attached to the membrane and cultured at 37° C. in a CO2 incubator for 2 hours.
50 μL of Stewartia koreana extract according to the present invention was added to the upper chamber and cultured for 2 hours. The polycarbonate membrane was died using the diff-quick staining agent and the migrated endothelial cells were counted through the polycarbonate membrane using a microscope (Table 1). Each dry extract powder of Stewartia koreana otained in Example were dissolved in water in an amount of 100 μg/mL. The negative control was water and the positive control was 10 ng/mL of VEGF (vascular endothelialgrowth factor, Sigma).
The polycarbonate membrane was stained with diff-quick staining agent and the number of the endothelial cells which had migrated through the polycarbonate membrane was then counted using a microscope (FIG. 1). […] The dry powder of the ethanol extract of Stewartia koreana and compound Madecassol™ were added to water in an amount of 12.5 to 100 μg/mL.

VEGF registered a Migrated endothelial cells of 75 ± 0.41.

For the origin of these results see patent US20100028463A1, “EXTRACT OF STEWARTIA KOREANA AND USE THEREOF” (priority 2006, published 2010).
